Assay results taken from ChEMBL document CHEMBL1759969 (Bioorg Med Chem Lett, 2011).

Tests used:
[1] = target: T1, Melatonin receptor type 1A (Homo sapiens, UniProt P48039); test: Displacement of 2-[125I]-iodomelatonin from human MT1 receptor expressed in HEK293 cells; type: cell-based
[2] = target: T2, Melatonin receptor type 1B (Homo sapiens, UniProt P49286); test: Displacement of 2-[125I]-iodomelatonin from human MT2 receptor expressed in HEK293 cells; type: cell-based
T2 sequence (P49286 whole entry): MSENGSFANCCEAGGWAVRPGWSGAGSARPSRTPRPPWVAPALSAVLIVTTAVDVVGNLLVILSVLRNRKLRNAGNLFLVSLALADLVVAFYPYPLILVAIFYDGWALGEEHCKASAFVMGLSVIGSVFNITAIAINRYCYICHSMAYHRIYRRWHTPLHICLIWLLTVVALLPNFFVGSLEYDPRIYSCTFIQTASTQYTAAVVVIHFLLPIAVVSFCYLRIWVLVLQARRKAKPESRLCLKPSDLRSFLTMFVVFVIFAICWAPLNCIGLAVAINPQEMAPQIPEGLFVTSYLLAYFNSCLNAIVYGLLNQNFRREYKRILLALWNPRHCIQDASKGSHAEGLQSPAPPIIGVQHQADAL

[3] = organism: Homo sapiens; test: Selectivity ratio of Ki for human MT1 receptor to Ki for human MT2 receptor
[4] = target: T2, Melatonin receptor type 1B; test: Agonist activity at human MT2 receptor expressed in CHO cells by [35S]GTPgamma binding assay; type: functional, cell-based
[5] = target: T1, Melatonin receptor type 1A; test: Agonist activity at human MT1 receptor expressed in CHO cells by [35S]GTPgamma binding assay; type: functional, cell-based

T1 sequence (P48039 whole entry): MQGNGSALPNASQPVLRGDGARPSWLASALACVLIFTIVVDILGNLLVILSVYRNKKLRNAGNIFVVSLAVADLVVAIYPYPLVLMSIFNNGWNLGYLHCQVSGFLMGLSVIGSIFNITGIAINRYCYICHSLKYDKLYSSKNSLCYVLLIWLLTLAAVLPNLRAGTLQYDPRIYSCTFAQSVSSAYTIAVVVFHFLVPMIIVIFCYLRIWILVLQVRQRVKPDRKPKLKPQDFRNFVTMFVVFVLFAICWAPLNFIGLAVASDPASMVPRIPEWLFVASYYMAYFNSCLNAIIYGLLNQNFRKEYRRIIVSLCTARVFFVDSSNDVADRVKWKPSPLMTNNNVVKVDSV

SMILES | Ki [1] [nM] | Ki [2] [nM] | Ratio Ki [3] | EC50 [4] [nM] | EC50 [5] [nM]
CNCc1cn(CCNC(C)=O)c2nc(OC)ccc12 | 8300 | 1090 | 7.6 |  | 
COc1ccc2c(C(=O)C(F)(F)F)cn(CCNC(C)=O)c2n1 | 91 | 30 | 3 | 10 | 93
CCC(=O)NCCn1ccc2ccc(OC)nc21 | 3.3 | 0.28 | 11.8 | 1.4 | 5.1
COc1ccc2[nH]cc(CCNC(C)=O)c2n1 | 0.2 | 0.3 | 0.7 | 1.1 | 12
COc1ccc2c3c(n(CCNC(C)=O)c2n1)CCCC3 | 9 | 0.68 | 13.2 | 1.3 | 16
COc1ccc2c(CN3CCOCC3)cn(CCNC(C)=O)c2n1 | > 10000 | 550 | > 20 |  | 
COc1ccc2ccn(CCNC(C)=O)c2n1 | 1.4 | 0.6 | 2.3 | 2.1 | 4
COc1cnc2[nH]cc(CCNC(C)=O)c2c1 |  | 117 |  | 380 | 
CCCC(=O)NCCn1ccc2ccc(OC)nc21 |  | 0.3 |  | 0.7 | 
COc1ccc2c(CN(C)C)cn(CCNC(C)=O)c2n1 | > 10000 | > 10000 |  |  | 
COc1ccc2c(CN3CCN(c4cccc(Cl)c4)CC3)cn(CCNC(C)=O)c2n1 | 1210 | 929 | 1.3 |  | 
COc1ccc2c(CN3CCC(C(=O)c4ccc(F)cc4)CC3)cn(CCNC(C)=O)c2n1 | 9490 | 7440 | 1.3 |  | 
COc1ccc2c(I)cn(CCNC(C)=O)c2n1 | 16 | 5 | 3.2 | 11 | 32
COc1ccc2c(CN(C)Cc3ccccc3)cn(CCNC(C)=O)c2n1 | 10500 | 4010 | 2.6 |  | 
COc1ccc2c(CN3CCCCC3)cn(CCNC(C)=O)c2n1 | 510 | 742 | 0.7 |  | 
